Experiments:
Type in all cases: physicochemical
[1] = Stability of non-dihydrate azithromycin in suspension (POS formulation II or bulk drug in water); SS-NMR quantification of form A
Protocol: The stability of various forms of non-dihydrate azithromycin, in water and in flavored oral suspensions, was evaluated. Specifically, non-dihydrate azithromycin forms G, M, N, F and J were separately used in POS formulation II. These POS formulations were constituted by mixing with 18 mls of water. The suspensions were then stored for 1, 5 and 10 days at either 5° C. or 30° C. Suspensions of bulk azithromycin forms G, M, N, F and J were also constituted with 18 mls of water and stored under the same conditions.
Upon conclusion of the storage time period the suspensions were filtered and suspended solids collected as described previously.

[2] = Stability of azithromycin form G in suspensions prepared from POS formulations I, II and III; conditions: 18 mls water, 30° C.
Protocol: These POS formulations were created by individually weighing each formulation component into a 60-cc High Density Polyethylene (HDPE) bottle with closure. The resulting formulations were then dry-mixed with a Turbula blender (Glen Mills Inc. Maywood, NJ) for 5 minutes. The powder blends were then constituted with 18 mls of water, shaken for 30 seconds and stored without agitation under controlled temperature conditions.
Upon conclusion of the storage time period the POS samples were filtered using a Buchner funnel in combination with a standard vacuum filtration apparatus. A Millipore prefilter (AP25, 47 mm) was fitted onto the funnel for the collection of suspended solids. Before filtering, the constituted POS sample was poured into a 200 ml volumetric flask and diluted to 200 ml with water. This lowered the viscosity of the sample, facilitating a quick filtration step. With the vacuum on, the diluted POS samples were poured onto the Millipore prefilter. The isolated filtrate remaining on top of the prefilter was then allowed to stand for 2-minutes in order to dry. Vacuum was applied to the filtration apparatus during this drying step. Suspensions containing only bulk drug were transferred directly onto the filter paper upon completion of storage, without the described dilution step during sample preparation. After drying, the collected filtrate was placed into 4 cc Sunbroker vials and analyzed via Solid-State Nuclear Magnetic Resonance (SS-NMR) for quantification of conversion to azithromycin dihydrate (form A).
Approximately 300 mg of sample were tightly packed into a 7 mm ZrO spinner for each sample analyzed. One-dimensional ^13C spectra were collected at ambient pressure using ^1H-^13C cross-polarization magic angle spinning (CPMAS) at 295 K on a Bruker 7 mm BL CPMAS probe positioned into a wide-bore Bruker Avance DSX 500 MHz NMR spectrometer (Bruker BioSpin Corporation; Billerica, Mass.). The samples were spun at 7000 Hz corresponding to the maximum specified spinning speed for the 7 mm spinners. The fast spinning speed minimized the intensities of the spinning side bands. To optimize the signal sensitivity, the cross-polarization contact time was adjusted to 2.3 ms and the decoupling power was set to 65 kHz. Typically, a total of 600 scans were acquired, resulting in approximately a 30 minute acquisition time. The spectra were referenced using an external sample of adamantane with its most upfield resonance set to 29.5 ppm.
Eight pairs of resolved peaks were identified to calibrate ratios of form A in the presence of form G, N, M or F. Integral intensities of all peaks were used as input for the calibration procedure using five different binary mixtures ranging from 3 to 81% of form A with each non-dihydrate form. From this, one non-linear calibration graph was generated for each pair of peaks and each form. For the experimental samples, only the peaks that were totally void from excipient overlap were preferentially integrated. The unknown percentages of form A were then determined from the appropriate calibration graphs. The final result for each sample analyzed was calculated as a weighted average of the determinations from each resolved peak pair.
The stability of form G azithromycin was also evaluated for suspensions prepared from POS formulations I, II and III. The form G bulk drug substance contained <1% by weight of form A prior to formulation and constitution. These suspensions were constituted with 18 mls of water and stored for 1 and 10 days at 30° C.

[3] = Effects of flavoring components upon azithromycin form G conversion in constituted POS; conditions: room temperature, 24-hours
Protocol: Standards of these identified solvent components were then used to investigate the source of the stability problem introduced by these flavorings. The estimated concentration of each solvent in a constituted POS was calculated based on the GC-MS quantification of the specified solvent in the flavorings. Aqueous solutions of each solvent/component were then created at these concentrations and 18 mls of each solvent-solution was used to constitute an unflavored POS formulation I sample using form G. The constituted drug suspensions were stored at room temperature for 24-hours, before being filtered and analyzed by SS-NMR for quantification of azithromycin form change over this interval. POS formulations I and II were constituted with 18 mls of water and stored identically to serve as controls for this experiment.

- % A (azithromycin dihydrate, form A, of recovered azithromycin) ([1]; Bulk Drug in 18 mls water, 5° C., Day 1): 1%
- % A (azithromycin dihydrate, form A, of recovered azithromycin) ([1]; Bulk Drug in 18 mls water, 5° C., Day 5): 6%
- % A (azithromycin dihydrate, form A, of recovered azithromycin) ([1]; Bulk Drug in 18 mls water, 5° C., Day 10): 12%
- % A (azithromycin dihydrate, form A, of recovered azithromycin) ([1]; Bulk Drug in 18 mls water, 30° C., Day 1): 3%
- % A (azithromycin dihydrate, form A, of recovered azithromycin) ([1]; Bulk Drug in 18 mls water, 30° C., Day 5): 26%
- % A (azithromycin dihydrate, form A, of recovered azithromycin) ([1]; Bulk Drug in 18 mls water, 30° C., Day 10): 73%
- % A (azithromycin dihydrate, form A, of recovered azithromycin) ([1]; Formulation II constituted with 18 mls water, 5° C., Day 1): 72%
- % A (azithromycin dihydrate, form A, of recovered azithromycin) ([1]; Formulation II constituted with 18 mls water, 5° C., Day 5): 75%
- % A (azithromycin dihydrate, form A, of recovered azithromycin) ([1]; Formulation II constituted with 18 mls water, 5° C., Day 10): 78%
- % A (azithromycin dihydrate, form A, of recovered azithromycin) ([1]; Formulation II constituted with 18 mls water, 30° C., Day 1): 82%
- % A (azithromycin dihydrate, form A, of recovered azithromycin) ([1]; Formulation II constituted with 18 mls water, 30° C., Day 5): 74%
- % A (azithromycin dihydrate, form A, of recovered azithromycin) ([1]; Formulation II constituted with 18 mls water, 30° C., Day 10): 76%
- % Form A ([2]; Formulation I (no flavorings), Day 1): 0%
- % Form A ([2]; Formulation I (no flavorings), Day 10, listed as form G, sesquihydrate): did not exhibit conversion
- % Form A ([2]; Formulation I (no flavorings), Day 10, sesquihydrate): 0%
- % Form A ([2]; Formulation II (Trusil banana), Day 1): 84%
- % Form A ([2]; Formulation II (Trusil banana), Day 10): 91%
- % Form A ([2]; Formulation III (B&C banana), Day 1): 27%
- % Form A ([2]; Formulation III (B&C banana), Day 10): 52%
- % Form A ([3]; Formulation I constituted with 18 mL 0.002 mg/ml ethyl ester propanoic acid): 0%
- % Form A ([3]; Formulation I constituted with 18 mL 0.025 mg/ml 3-methyl-1-butanol): 0%
- % Form A ([3]; Formulation I constituted with 18 mL 0.043 mg/ml isoamyl isovalerate): 13%
- % Form A ([3]; Formulation I constituted with 18 mL 0.144 mg/ml 2-methyl-butyl acetate): 0%
- % Form A ([3]; Formulation I constituted with 18 mL 0.197 mg/ml ethyl acetate): 0%
- % Form A ([3]; Formulation I constituted with 18 mL 0.587 mg/ml benzaldehyde): 0%
- % Form A ([3]; Formulation I constituted with 18 mL 0.785 mg/ml 3-methyl-butyl acetate + 0.562 mg/ml benzaldehyde): 11%
- % Form A ([3]; Formulation I constituted with 18 mL 0.815 mg/ml 3-methyl-butyl acetate): 2%
- % Form A ([3]; Formulation I constituted with 18 mL Water, listed as form G, sesquihydrate): no conversion
- % Form A ([3]; Formulation I constituted with 18 mL Water, sesquihydrate): 0%
- % Form A ([3]; Formulation II constituted with 18 mL Water, listed as form G, sesquihydrate): approximately 71%
- % Form A ([3]; Formulation II constituted with 18 mL Water, sesquihydrate): 71%
Structure (SMILES): CC[C@H]1OC(=O)[C@H](C)[C@@H](O[C@H]2C[C@@](C)(OC)[C@@H](O)[C@H](C)O2)[C@H](C)[C@@H](O[C@@H]2O[C@H](C)C[C@H](N(C)C)[C@H]2O)[C@](C)(O)C[C@@H](C)CN(C)[C@H](C)[C@@H](O)[C@]1(C)O [Form G, azithromycin sesquihydrate]
